Data set [1] concerns the target T1, KV10.1 (Homo sapiens, UniProt O95259).
T1 construct: expressed in transfected cells; host or cells: Xenopus laevis oocytes (cRNA injection)
T1 sequence (O95259 1-989): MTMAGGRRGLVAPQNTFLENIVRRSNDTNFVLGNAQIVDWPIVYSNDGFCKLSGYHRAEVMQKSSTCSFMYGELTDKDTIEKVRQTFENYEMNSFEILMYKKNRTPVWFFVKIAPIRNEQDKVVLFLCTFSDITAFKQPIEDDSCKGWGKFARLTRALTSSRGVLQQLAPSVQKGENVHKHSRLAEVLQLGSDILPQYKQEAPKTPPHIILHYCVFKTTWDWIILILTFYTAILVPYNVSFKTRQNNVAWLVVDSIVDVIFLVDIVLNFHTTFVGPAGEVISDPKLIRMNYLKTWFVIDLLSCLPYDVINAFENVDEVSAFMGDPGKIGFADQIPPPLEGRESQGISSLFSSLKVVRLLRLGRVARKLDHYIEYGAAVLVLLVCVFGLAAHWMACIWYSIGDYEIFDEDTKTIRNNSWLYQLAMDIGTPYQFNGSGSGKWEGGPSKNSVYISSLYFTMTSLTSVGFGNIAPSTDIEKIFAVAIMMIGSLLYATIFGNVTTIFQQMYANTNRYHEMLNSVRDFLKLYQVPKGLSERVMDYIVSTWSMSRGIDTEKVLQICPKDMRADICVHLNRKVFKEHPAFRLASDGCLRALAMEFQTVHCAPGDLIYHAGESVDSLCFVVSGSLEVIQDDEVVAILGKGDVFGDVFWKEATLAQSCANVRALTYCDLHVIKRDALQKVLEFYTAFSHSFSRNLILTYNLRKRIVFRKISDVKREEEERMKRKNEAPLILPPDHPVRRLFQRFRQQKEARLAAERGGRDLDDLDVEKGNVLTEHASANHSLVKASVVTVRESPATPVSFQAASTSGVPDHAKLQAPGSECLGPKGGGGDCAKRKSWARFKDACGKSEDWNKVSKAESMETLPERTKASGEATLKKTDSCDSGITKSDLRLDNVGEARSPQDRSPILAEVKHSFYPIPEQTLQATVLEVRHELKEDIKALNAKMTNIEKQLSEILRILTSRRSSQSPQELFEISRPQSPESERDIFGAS
As to the kind of experiment: Two-electrode voltage-clamp on Xenopus laevis oocytes expressing KV10.1. Type of data set: cell-based. To be noted: voltage-clamped. The text has this: (§1) Stage V–VI oocytes were isolated by partial ovariectomy from Xenopus laevis frogs (African clawed frog). Mature female frogs were purchased from CRB Xénopes (Rennes, France) and were housed in the Aquatic Facility (KU Leuven) in compliance with the regulations of the European Union (EU) concerning the welfare of laboratory animals as declared in Directive 2010/63/EU. The use of Xenopus laevis was approved by the Animal Ethics Committee of the KU Leuven (Project nr. P186/2019). After anesthetising the frogs by a 15 min submersion in 0.1% tricaine methanesulphonate (pH 7.0), the oocytes were collected. The isolated oocytes were then washed with a 1.5 mg/mL collagenase solution for 2 h to remove the follicle layer.
(§2) Ion channels (KV10.1 and hERG) were expressed in Xenopus laevis oocytes, by linearisation of the plasmids and subsequent in vitro transcription using a commercial T7 or SP6 mMESSAGE mMACHINE transcription kit (Ambion, Carlsbad, CA, USA). Defolliculated Xenopus oocytes were then injected with 20–50 nL of the cRNA at a concentration of 1 ng/nL using a micro-injector (Drummond Scientific1, Broomall, PA, USA). The oocytes were incubated in a solution containing (in mM): NaCl, 96; KCl, 2; CaCl2, 1.8; MgCl2, 2 and HEPES, 5 (pH 7.4), supplemented with 50 mg/L gentamycin sulphate and […]. After ex vivo translation, the ion channels are correctly inserted in the cell membrane of the oocytes.
(§3) Two-electrode voltage-clamp recordings were performed at room temperature (18–22 °C) using a Geneclamp 500 amplifier (Molecular Devices, San Jose, CA, USA) controlled by a pClamp data acquisition system (Axon Instruments1, Union City, CA, USA) and using an integrated digital TEVC amplifier controlled by HiClamp, an automated Voltage-Clamp Screening System (Multi Channel Systems MCS GmbH, Reutlingen, Germany). Whole-cell currents from oocytes were recorded 1–7 days after injection. The bath solution composition was ND96 (in mM): NaCl, 96; KCl, 2; CaCl2, 1.8; MgCl2, 2 and HEPES, 5 (pH 7.5). Voltage and current electrodes were filled with a 3 M solution of KCl in H2O. Resistances of both electrodes were kept between 0.5 and 1.5 MΩ. The elicited Kv10.1 and hERG currents were filtered at 0.5 kHz and sampled at 2 kHz using a four-pole low-pass Bessel filter. Leak subtraction was performed using a p/4 protocol. Starting from a holding potential of −90 mV, currents for Kv10.1 were evoked by 1 s depolarizing pulses to 0 mV and currents for hERG were evoked by 2.5 s depolarizing prepulses to +40 mV, followed by hyperpolarizing pulses to −120 mV for 2.5 s. The concentration dependency of all compounds was assessed by measuring the current inhibition in the presence of increasing compound concentrations. To this end, a stock solution of the compounds was prepared in 100% DMSO for the sake of solubility. From this stock solution, adequate dilutions with a maximum of 0.5% DMSO were made for testing. The data of the concentration–response curves were fitted with the Hill equation: y = 100/{1 + (IC50/[compound])^h}, where y is the amplitude of the compound- induced effect, IC50 is the compound concentration at half-maximal efficacy, (compound) is the compound concentration, and h is the Hill coefficient.
(§4) All electrophysiological data are presented as means ± SEM of n ≥ 3 independent experiments unless otherwise indicated. Oocyte data were analysed using pClamp Clampfit 10.4 (Molecular Devices, Downingtown, PA, USA) and OriginPro 9 (Originlab, Northampton, MA, USA) or GraphPad Prism 8 software (GraphPad Software, Inc., San Diego, CA, USA). Patch-clamp data analysis was performed using FitMaster (HEKA Electronics), IgorPro (Wavemetrics, Inc., Lake Oswego, OR, USA) and GraphPad Prism 9 (GraphPad Software, Inc., San Diego, CA, USA). The Dunnett test and one-way ANOVA were performed to calculate the significance of the induced inhibition compared to the control (p < 0.05).
(Two-electrode voltage clamp holds a large cell at a set potential and records current.)

For data set [2], the target named is hERG (Homo sapiens, UniProt Q12809). As to the kind of experiment: Two-electrode voltage-clamp on Xenopus laevis oocytes expressing hERG. Particulars: voltage-clamped; for inhibition at 10 µM: human, Xenopus laevis oocytes expressing hERG, pH 7.5, 10 μM. Type of data set: cell-based. The arrangement: expressed in transfected cells; host or cells: Xenopus laevis oocytes (cRNA injection).
Sequence of hERG (Q12809 whole entry): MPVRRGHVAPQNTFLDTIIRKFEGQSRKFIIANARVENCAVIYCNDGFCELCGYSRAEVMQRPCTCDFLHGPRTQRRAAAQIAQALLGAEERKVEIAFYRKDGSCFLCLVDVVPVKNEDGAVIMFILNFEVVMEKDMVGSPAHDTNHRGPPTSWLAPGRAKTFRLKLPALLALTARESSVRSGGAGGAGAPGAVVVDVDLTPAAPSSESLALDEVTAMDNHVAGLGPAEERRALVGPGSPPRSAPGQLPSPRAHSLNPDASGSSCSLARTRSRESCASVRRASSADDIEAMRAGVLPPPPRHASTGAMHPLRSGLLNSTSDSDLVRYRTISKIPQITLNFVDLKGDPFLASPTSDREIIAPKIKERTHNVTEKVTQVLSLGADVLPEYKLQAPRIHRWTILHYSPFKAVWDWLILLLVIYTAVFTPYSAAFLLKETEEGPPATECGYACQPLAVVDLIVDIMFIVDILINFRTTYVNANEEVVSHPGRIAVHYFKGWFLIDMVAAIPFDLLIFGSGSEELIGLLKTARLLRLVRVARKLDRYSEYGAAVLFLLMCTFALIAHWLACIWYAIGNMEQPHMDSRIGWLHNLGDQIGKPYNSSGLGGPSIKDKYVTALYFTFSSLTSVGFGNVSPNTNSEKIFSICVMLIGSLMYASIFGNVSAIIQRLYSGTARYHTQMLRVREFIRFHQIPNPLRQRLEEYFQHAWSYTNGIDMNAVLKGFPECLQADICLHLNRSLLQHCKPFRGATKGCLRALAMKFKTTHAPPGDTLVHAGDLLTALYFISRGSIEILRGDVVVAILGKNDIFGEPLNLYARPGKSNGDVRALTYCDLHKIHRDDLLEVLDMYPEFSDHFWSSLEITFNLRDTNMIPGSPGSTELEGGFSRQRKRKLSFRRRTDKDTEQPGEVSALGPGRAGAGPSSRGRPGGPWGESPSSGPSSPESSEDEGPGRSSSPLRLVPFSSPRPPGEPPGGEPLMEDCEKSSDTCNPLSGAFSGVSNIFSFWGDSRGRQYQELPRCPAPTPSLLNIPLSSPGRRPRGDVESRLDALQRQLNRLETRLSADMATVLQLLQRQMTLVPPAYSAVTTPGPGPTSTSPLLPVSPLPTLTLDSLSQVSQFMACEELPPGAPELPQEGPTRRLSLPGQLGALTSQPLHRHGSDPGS
Excerpt: as §1, §2, §3, §4

Seven compounds from PMC9501377, “New Diarylamine KV10.1 Inhibitors and Their Anticancer Potential” (Pharmaceutics, 2022) can be followed below.

Take `CN(C)CCOc1ccc(Nc2ccc(C(F)(F)F)cc2[N+](=O)[O-])cc1` [Compound 18a, N-(4-(2-(Dimethylamino)ethoxy)phenyl)-2-nitro-4-(trifluoromethyl)aniline]: the results for the inhibition at 10 µM in data set [1] (10 μM) and in data set [2] were 41.7% and 65.2%, respectively. Also, the IC50 (usually the concentration needed to halve the response being measured) turned out to be 11.6 ± 0.35 µM in data set [1] and 7.56 ± 0.41 µM in data set [2].

Regarding `CN(C)CCOc1c(Br)cc(Nc2ccc(C(F)(F)F)cc2[N+](=O)[O-])cc1Br` [Compound 18b, 3,5-Dibromo-4-(2-(dimethylamino)ethoxy)-N-(2-nitro-4-(trifluoromethyl)phenyl)aniline], the inhibition (as a rule, the relative decrease from the control value, in per cent) at 10 µM in data set [1] (10 μM) came out at 26%; in data set [2], 66.8%.

Consider `CN(C)CCOc1c(Cl)cc(Nc2ccc(C(F)(F)F)cc2[N+](=O)[O-])cc1Cl` [Compound 18c, 3,5-Dichloro-4-(2-(dimethylamino)ethoxy)-N-(2-nitro-4-(trifluoromethyl)phenyl)aniline], for which the inhibition at 10 µM in data set [1] (10 μM) was found to be 58.2%; in data set [2] it was 76.8%. Further, the IC50 in data set [1] is 19 ± 2.85 µM; in data set [2] it was 0.66 ± 0.27 µM.

`O=[N+]([O-])c1cc(C(F)(F)F)ccc1Nc1ccc(OCCN2CCCC2)cc1` [Compound 19, 2-Nitro-N-(4-(2-(pyrrolidin-1-yl)ethoxy)phenyl)-4-(trifluoromethyl)aniline]: the inhibition at 10 µM in data set [1] (10 μM) is 55.7%; in data set [2], 65.9%.

Turning to `O=[N+]([O-])c1cc(C(F)(F)F)ccc1Nc1ccc(OCCN2CCCCC2)cc1` [Compound 20, 2-Nitro-N-(4-(2-(piperidin-1-yl)ethoxy)phenyl)-4-(trifluoromethyl)aniline], the inhibition at 10 µM in data set [1] (10 μM) was determined as 36.3%; in data set [2], 75.6%. Moreover, the IC50 in data set [1] was 12.93 ± 0.04 µM; in data set [2], 0.59 ± 0.01 µM.

Turning to `O=[N+]([O-])c1cc(C(F)(F)F)ccc1Nc1ccc(OCCN2CCCCCC2)cc1` [Compound 21, N-(4-(2-(Azepan-1-yl)ethoxy)phenyl)-2-nitro-4-(trifluoromethyl)aniline], the values for the inhibition at 10 µM in data set [1] (10 μM) and in data set [2] were 43.4% and 77.5 ± 5.71%, respectively. Moreover, the IC50 in data set [1] was found to be 13.3 ± 1.89 µM; in data set [2], 1.34 ± 0.32 µM.

As to “Methyl 2-((4-(2-hydroxy-3-morpholinopropoxy)phenyl)amino)benzoate [Compound 5e]”, the “% of Kv10.1 inhibition at 10 μM (Xenopus laevis oocytes)” value in data set [1] (10 μM) was -2.17% ± 3.06. Moreover, the “% of hERG inhibition at 10 μM (Xenopus laevis oocytes)” value in data set [2] (10 μM) is reported as 37.32% ± 13.11.
